# Source: patent US6737383B1, “Herbicidal oxadiazolidines” (priority 1999, dated 2004)
# How the values were obtained:
# morningglory = test: Test B pre/postemergence morningglory; assay type: in vivo, Ipomoea hederacea
# Outline: (§1)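 Response is a visual 0-to-10 score relative to untreated plants, where 0 means no effect and 10 means complete control, taken twelve to sixteen days after application. Treatments went onto soil at planting and onto foliage of 1- to 4-leaf plants, using a surfactant-containing non-phytotoxic solvent.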
# surinam grass = test: Test B pre/postemergence surinam grass; assay type: in vivo, Brachiaria decumbens
# Outline: as §1
# bedstraw = test: Test B pre/postemergence bedstraw; assay type: in vivo, Galium aparine
# Outline: as §1
# wheat = test: Test B pre/postemergence wheat; assay type: in vivo, Triticum aestivum
# Outline: as §1
# giant foxtail = test: Test B pre/postemergence giant foxtail; assay type: in vivo, Setaria faberii
# Outline: as §1
# bamyardgrass = test: Test B flood test barnyardgrass; assay type: in vivo, Echinochloa crus-galli
# Outline: (§2)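 Flood test on plants grown to the 2-leaf stage; treated plants kept in greenhouse twelve to sixteen days, then visually rated against controls on a 0 (no effect) to 10 (complete control) scale.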
# wild oat = test: Test B pre/postemergence wild oat; assay type: in vivo, Avena fatua
# Outline: as §1
# smallflower flatsedge = test: Test B flood test smallflower flatsedge; assay type: in vivo, Cyperus difformis
# Outline: as §2
# corn = test: Test B pre/postemergence corn; assay type: in vivo, Zea mays
# Outline: as §1
# blackgrass = test: Test B pre/postemergence blackgrass; assay type: in vivo, Alopecurus myosuroides
# Outline: as §1
# rice = test: Test B flood test rice; assay type: in vivo, Oryza sativa
# Outline: as §2
# pigweed = test: Test B pre/postemergence pigweed; assay type: in vivo, Amaranthus retroflexus
# Outline: as §1
# rape = test: Test B pre/postemergence rape; assay type: in vivo, Brassica napus
# Outline: as §1
# purple nutsedge = test: Test B pre/postemergence purple nutsedge; assay type: in vivo, Cyperus rotundus
# Outline: as §1
# sugar beet = test: Test B pre/postemergence sugar beet; assay type: in vivo, Beta vulgaris
# Outline: as §1
# crabgrass = test: Test B pre/postemergence crabgrass; assay type: in vivo, Digitaria sanguinalis
# Outline: as §1
# [1] = Postemergence, Rate 250 g/ha, scale 0 to 10
# [2] = Postemergence, Rate 500 g/ha, scale of 0 to 10 where 0 is no effect and 10 is complete control
# [3] = Preemergence, Rate 62 g/ha, scale of 0 to 10 where 0 is no effect and 10 is complete control
# [4] = Preemergence, Rate 125 g/ha, scale of 0 to 10 where 0 is no effect and 10 is complete control
# [5] = Preemergence, Rate 250 g/ha, scale 0 to 10, 0 is no effect, 10 is complete control
# [6] = Preemergence, Rate 500 g/ha, scale 0 to 10, 0 is no effect, 10 is complete control
# [7] = Rate 62 g/ha, Postemergence, scale 0 to 10 (0 no effect, 10 complete control)
# [8] = Rate 125 g/ha, Postemergence, scale 0 to 10, 0 is no effect, 10 is complete control
# [9] = Rate 62 g/ha, flood test species, Pre-emergence, visual evaluation after twelve to sixteen days
# [10] = Rate 125 g/ha, under heading Pre-emergence, flood test species, visual evaluation after twelve to sixteen days
# [11] = Rate 250 g/ha, Pre-emergence (flood test species), scale 0 to 10, 0 is no effect, 10 is complete control
# [12] = Rate 500 g/ha, Pre-emergence, flood test species, scale 0 to 10 (0 no effect, 10 complete control)
structure (smiles),measurement,setting,value
CC(C)N(C(=O)n1oc(=O)n(C(C)Cl)c1=O)c1ccccc1 (stereo not drawn) [Compound 438],Morningglory plant response rating,morningglory; [1],9
same,Morningglory plant response rating,morningglory; [2],10
same,"Plant response rating, Morningglory",morningglory; [3],0
same,"Plant response rating, Morningglory",morningglory; [4],0
same,Morningglory plant response rating,morningglory; [5],0
same,Morningglory plant response rating,morningglory; [6],2
same,Morningglory plant response rating,morningglory; [7],4
same,Morningglory plant response rating,morningglory; [8],8
same,B. signalgrass plant response rating,"surinam grass; Postemergence, Rate 250 g/ha, scale 0 to 10, 0 no effect, 10 complete control",0
same,B. signalgrass plant response rating,surinam grass; [2],0
same,"Plant response rating, B. signalgrass",surinam grass; [3],0
same,"Plant response rating, B. signalgrass",surinam grass; [4],0
same,B. signalgrass plant response rating,surinam grass; [5],0
same,B. signalgrass plant response rating,surinam grass; [6],2
same,B. signalgrass plant response rating,surinam grass; [7],0
same,B. signalgrass plant response rating,surinam grass; [8],0
same,Bedstraw plant response rating,bedstraw; [1],0
same,Bedstraw plant response rating,bedstraw; [5],0
same,Bedstraw plant response rating,bedstraw; [7],0
same,Bedstraw plant response rating,bedstraw; [8],0
same,Wheat plant response rating,wheat; [1],0
same,Wheat plant response rating,wheat; [2],0
same,"Plant response rating, Wheat",wheat; [3],0
same,"Plant response rating, Wheat",wheat; [4],0
same,Wheat plant response rating,wheat; [5],0
same,Wheat plant response rating,wheat; [6],0
same,Wheat plant response rating,wheat; [7],0
same,Wheat plant response rating,wheat; [8],0
same,Giant foxtail plant response rating,giant foxtail; [1],9
same,Giant foxtail plant response rating,giant foxtail; [2],9
same,"Plant response rating, Giant foxtail",giant foxtail; [3],2
same,"Plant response rating, Giant foxtail",giant foxtail; [4],7
same,Giant foxtail plant response rating,giant foxtail; [5],10
same,Giant foxtail plant response rating,giant foxtail; [6],10
same,Giant foxtail plant response rating,giant foxtail; [7],5
same,Giant foxtail plant response rating,giant foxtail; [8],5
same,"Plant response rating, Barnyardgrass (0 to 10 scale, 0 is no effect, 10 is complete control)",bamyardgrass; [9],0
same,"Barnyardgrass plant response rating (0 to 10 scale, 0 is no effect, 10 is complete control)",bamyardgrass; [10],0
same,Barnyardgrass plant response rating,bamyardgrass; [11],0
same,Barnyardgrass plant response rating,bamyardgrass; [12],0
same,Wild oats plant response rating,wild oat; [1],0
same,Wild oats plant response rating,wild oat; [2],0
same,"Plant response rating, Wild oats",wild oat; [3],0
same,"Plant response rating, Wild oats",wild oat; [4],0
same,Wild oats plant response rating,wild oat; [5],1
same,Wild oats plant response rating,wild oat; [6],3
same,Wild oats plant response rating,wild oat; [7],0
same,Wild oats plant response rating,wild oat; [8],0
same,"Plant response rating, S. Flatsedge (0 to 10 scale, 0 is no effect, 10 is complete control)",smallflower flatsedge; [9],0
same,"S. Flatsedge plant response rating (0 to 10 scale, 0 is no effect, 10 is complete control)",smallflower flatsedge; [10],0
same,S. Flatsedge plant response rating,smallflower flatsedge; [11],0
same,S. Flatsedge plant response rating,smallflower flatsedge; [12],0
same,Corn plant response rating,corn; [1],0
same,Corn plant response rating,corn; [2],3
same,"Plant response rating, Corn",corn; [3],0
same,"Plant response rating, Corn",corn; [4],0
same,Corn plant response rating,corn; [5],0
same,Corn plant response rating,corn; [6],0
same,Corn plant response rating,corn; [7],0
same,Corn plant response rating,corn; [8],0
same,Blackgrass plant response rating,blackgrass; [1],2
same,Blackgrass plant response rating,blackgrass; [2],2
same,"Plant response rating, Blackgrass",blackgrass; [3],0
same,"Plant response rating, Blackgrass",blackgrass; [4],0
same,Blackgrass plant response rating,blackgrass; [5],2
same,Blackgrass plant response rating,blackgrass; [6],3
same,Blackgrass plant response rating,blackgrass; [7],0
same,Blackgrass plant response rating,blackgrass; [8],0
same,"Plant response rating, Rice (0 to 10 scale, 0 is no effect, 10 is complete control)",rice; [9],0
same,"Rice plant response rating (0 to 10 scale, 0 is no effect, 10 is complete control)",rice; [10],0
same,Rice plant response rating,rice; [11],0
same,Rice plant response rating,rice; [12],0
same,Redroot pigweed plant response rating,pigweed; [1],0
same,Redroot pigweed plant response rating,pigweed; [2],0
same,"Plant response rating, Redroot pigweed",pigweed; [3],2
same,"Plant response rating, Redroot pigweed",pigweed; [4],2
same,Redroot pigweed plant response rating,pigweed; [5],5
same,Redroot pigweed plant response rating,pigweed; [6],10
same,Redroot pigweed plant response rating,pigweed; [7],0
same,Redroot pigweed plant response rating,pigweed; [8],0
same,Rape plant response rating,rape; [1],0
same,Rape plant response rating,rape; [2],0
same,"Plant response rating, Rape",rape; [3],0
same,"Plant response rating, Rape",rape; [4],0
same,Rape plant response rating,rape; [5],0
same,Rape plant response rating,rape; [6],2
same,Rape plant response rating,rape; [7],0
same,Rape plant response rating,rape; [8],0
same,Nutsedge plant response rating,purple nutsedge; [1],0
same,Nutsedge plant response rating,purple nutsedge; [2],0
same,"Plant response rating, Nutsedge",purple nutsedge; [3],0
same,"Plant response rating, Nutsedge",purple nutsedge; [4],0
same,Nutsedge plant response rating,purple nutsedge; [5],0
same,Nutsedge plant response rating,purple nutsedge; [7],0
same,Nutsedge plant response rating,purple nutsedge; [8],0
same,Sugarbeets plant response rating,sugar beet; [1],0
same,Sugarbeets plant response rating,sugar beet; [2],0
same,"Plant response rating, Sugarbeets",sugar beet; [3],0
same,"Plant response rating, Sugarbeets",sugar beet; [4],0
same,Sugarbeets plant response rating,sugar beet; [5],0
same,Sugarbeets plant response rating,sugar beet; [6],0
same,Sugarbeets plant response rating,sugar beet; [7],0
same,Sugarbeets plant response rating,sugar beet; [8],0
same,Crabgrass plant response rating,crabgrass; [1],8
same,Crabgrass plant response rating,crabgrass; [2],9
same,"Plant response rating, Crabgrass",crabgrass; [3],3
same,"Plant response rating, Crabgrass",crabgrass; [4],6
same,Crabgrass plant response rating,crabgrass; [5],9
same,Crabgrass plant response rating,crabgrass; [6],10
same,Crabgrass plant response rating,crabgrass; [7],2
same,Crabgrass plant response rating,crabgrass; [8],4
